“Also recorded” adds a separate entry of the source. *1 amine or outer side, *2 acyl side, *3 side chain or, on linkers, in order; H or OH if unused. Where a SMILES comes first, the peptide text is derived from it. Where no end group is shown, it is not given here. [ ]: non-standard residue; d: D form. The star is where a group is joined. ξ: configuration not given here. ξ(4-Aminopyrrolidine-3-CO) = O=C(C1CNCC1N[*:1])[*:2]; NH(1S,2S-2-CONH2-cPent) = NC(=O)[C@H]1CCC[C@@H]1N*; ACPC(1S,2S) = N[C@H]1CCC[C@@H]1C(=O)*; X1 = O=C([C@H]1CCC[C@@H]1N[*:1])[*:2]; X2 = O=C([C@H]1CNC[C@@H]1N[*:1])[*:2]; Aib = CC(C)(N)C(=O)O Bounds are passed on as bounds.

Data set [1] has as its target T1, HER2 (Homo sapiens, UniProt P04626). The conditions noted are these: cited from earlier work.
The next data set concerns the target T2, VEGF (Homo sapiens, UniProt P15692).
T2 construct: made in house
T2 sequence (P15692 27-191 isoform P15692-4): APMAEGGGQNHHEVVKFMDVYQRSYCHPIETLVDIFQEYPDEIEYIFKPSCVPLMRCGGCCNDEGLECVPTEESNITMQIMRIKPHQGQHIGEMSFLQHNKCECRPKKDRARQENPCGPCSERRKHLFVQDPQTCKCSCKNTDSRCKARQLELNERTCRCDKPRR
The data set can be described thus: VEGF competition fluorescence polarization (FP) assay. The format is binding. The conditions noted are these: for binding to VEGF (in words): competition FP assay. Background: Polarisation of emitted light reports the rotation of a fluorescent probe.

Data set [2] in a line: Half-life of Z-HER2 mimics (Table 16). The format is in vitro ADME. As to conditions: conditions not given; read-out: half-life t1/2.
The target in data set [3] is T1, HER2. In words: Z-HER2 mimics binding, ELISA 3. As to conditions: read-out: ELISA 3 Ki calcd.
For data set [4], the target named is T3, TNFα (binding to immobilized TNFR1) (Homo sapiens, UniProt P01375).
T3 construct: purchased R&D Systems 210-TA-020 (TNFα); 636-R1-025 (sTNF RI)
T3 sequence (P01375 77-233 limits assumed): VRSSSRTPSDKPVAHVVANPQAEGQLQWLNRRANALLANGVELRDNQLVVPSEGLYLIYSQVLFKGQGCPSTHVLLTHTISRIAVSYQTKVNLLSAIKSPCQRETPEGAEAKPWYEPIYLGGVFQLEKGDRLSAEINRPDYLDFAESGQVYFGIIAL
The data set can be described thus: TNFα/TNFR competition ELISA. As to conditions: Table 14; read-out: TNFa-TNFR ELISA IC50. On the technique in general: An ELISA detects its analyte on a solid surface through an enzyme-linked reagent.
Procedure: The binding of α/β-peptides to TNFα to inhibit binding to TNFR was determined by competition ELISA. […] After immobilization, the plate was washed with PBS/0.05% TWEEN, blocked with 1% BSA in PBS for 2 hours, and then washed with PBS/0.05% TWEEN. Serial dilutions of soluble α/β-peptides in DMSO were prepared (final concentrations=0.04 nM-10 μM), and 10 μL of each of these solutions added to 240 μL of recombinant human TNFα (R&D Systems, 210-TA-020, final concentration=0.080 μg/mL) in PBS/0.05% TWEEN. The α/β-peptides were allowed to pre-incubate with TNFα for 3 hours and then 50 μL of each α/β-peptide/TNFα mixture was added to wells on the ELISA plate and incubated at room temperature for 1 hour. The plate was then washed with PBS/0.05% TWEEN and the presence of TNFα detected by adding 100 μL of a 1:500 dilution of Human TNFα Biotinylated Affinity Purified PAb (R&D Systems, BAF210) and incubating at room temperature for 1 hour. […] Plates were read during the time course of the reaction on a BioTek Synergy 2 microplate reader, reading A405. […] To compare the ability of each soluble α/β-peptide to inhibit the binding of TNFα to immobilized TNFR, IC50 values were calculated by fitting the ELISA absorbance data to a sigmoidal dose-response equation.

For data set [5], the system named is VEGF-induced proliferation of human umbilical vein endothelial cells (HUVECs). In words: HUVEC proliferation assay (VEGF165-induced, Click-iT EdU). The format is cell-based. The conditions noted are these: 50 μM peptide, 10 ng/mL VEGF165.
Procedure: Human umbilical vein endothelial cells (HUVECs) (Lonza, Basel, Switzerland, catalog no. CC2519) were cultured using Medium 199 (M199) (Mediatech, Herndon, Va., USA; 50-050-PB) supplemented with penicillin/steptomycin (HyClone-brand, Thermo Fisher Scientific, Herndon, Va., USA; SV30010) and EGM-2 (Lonza, CC4176) at 37° C. in 5% CO2. Cells were grown to 60-80% confluence and then serum-starved in M199 with 2% cosmic calf serum (CCS) (HyClone-brand, SH30087) overnight. […] Filter sterilized stock solutions of α- or α/β-peptide in PBS were made at a concentration of 200 μM, as determined by UV absorbance. Appropriate dilutions of α- or α/β-peptide were made with PBS, and the resulting solutions were premixed with recombinant human VEGF165 (R&D Systems, 293-VE-010) or recombinant human FGF basic (FGF-2) (R&D Systems, a wholly owned subsidiary of TECHNE Corporation, Minneapolis, Minn., USA; 233-FB-025) in M199/2% CCS and incubated at room temperature for 1 hour. […] Relative cell proliferation was quantified using the “Click-iT”-brand EdU Alexa Flour 488 Assay (Life Technologies, C10337). […] EdU incorporation was detected using Life Technologies' assay protocol. […] Images were analyzed using NIS-Elements AR Imaging Software (Nikon Instruments, Inc., Melville, N.Y., USA) to count the number of proliferating cells (EdU stained) and total number of cells (Hoechst stained). […]

Turning to “82 (VENKFNKEMRNAYWEIALLPNLNNQQKRAFIRSLYDDPG; listed as Homo sapiens) [compound 82]”, the “reported Kd” value with HER2 [1] is recorded as “no blinding”.
What is called Ki is the equilibrium dissociation constant of an inhibitor or competing ligand from its target. In turn, `CC[C@H](C)[C@H](NC(=O)[C@H](C)NC(=O)[C@H]1CCC[C@@H]1NC(=O)[C@H](C)NC(=O)[C@H](CC(N)=O)NC(=O)[C@H](Cc1c[nH]cn1)NC(=O)[C@H]1CCC[C@@H]1NC(=O)[C@H](CCC(=O)O)NC(=O)[C@@H](N)CCCCN)C(=O)N[C@@H](CCC(=O)O)C(=O)N[C@H](C(=O)N[C@@H](C)C(=O)N[C@@H](CC(C)C)C(=O)N[C@@H](CC(C)C)C(=O)N1CCC[C@H]1C(=O)N[C@@H](CC(N)=O)C(=O)N[C@@H](CC(C)C)C(=O)N[C@@H](CC(N)=O)C(=O)N[C@@H](CC(=O)O)C(=O)N[C@@H](CCC(N)=O)C(=O)N[C@@H](CCC(N)=O)C(=O)N[C@@H](Cc1ccccc1)C(=O)N[C@@H](Cc1c[nH]cn1)C(=O)N[C@@H](C)C(=O)N[C@H]1CCC[C@@H]1C(=O)N[C@H](C(=O)N[C@@H](Cc1c[nH]c2ccccc12)C(=O)N[C@H]1CCC[C@@H]1C(=O)N[C@@H](CC(C)C)C(=O)N[C@H](C(=O)N[C@@H](CC(=O)O)C(=O)N[C@@H](CC(=O)O)C(=O)N1CCC[C@H]1C(=O)N[C@@H](CO)C(N)=O)[C@@H](C)CC)[C@@H](C)CC)[C@@H](C)CC` [E4, KEXHNAXAIEIALLPNLNDQQFHAXIWXLIDDPS] (H-KE[X1]HNA[X1]AIEIALLPNLNDQQFHA[X1]IW[X1]LIDDPS-NH2) yielded an inhibition constant (Ki) on VEGF (Table 5, early mimics, FP assay run once) greater than 50000 nM.
As for `CC[C@H](C)[C@H](NC(=O)C1CNCC1NC(=O)[C@H](CCCNC(=N)N)NC(=O)[C@@H](NC(=O)[C@H](CCCCN)NC(=O)C(C)(C)NC(=O)[C@H](CCCNC(=N)N)NC(=O)[C@H](CCCCN)NC(=O)[C@H](CCC(N)=O)NC(=O)C(C)(C)NC(=O)[C@H](CC(N)=O)NC(=O)[C@H](CC(N)=O)NC(=O)[C@H](CC(C)C)NC(=O)[C@H](CC(N)=O)NC(=O)[C@@H]1CCCN1C(=O)[C@H](CC(=O)O)NC(=O)[C@H](CC(C)C)NC(=O)[C@H](C)NC(=O)C(C)(C)NC(=O)[C@H](CCC(=O)O)NC(=O)[C@H](Cc1c[nH]c2ccccc12)NC(=O)[C@H](Cc1ccc(O)cc1)NC(=O)[C@H](CCCNC(=N)N)NC(=O)C1CNCC1NC(=O)[C@H](CCCNC(=N)N)NC(=O)[C@H](CCSC)NC(=O)[C@H]1CCC[C@@H]1NC(=O)[C@H](CCCCN)NC(=O)[C@H](CC(N)=O)NC(=O)[C@@H](N)Cc1ccccc1)[C@@H](C)CC)C(=O)N[C@@H](Cc1ccc(O)cc1)C(=O)N[C@@H](CC(=O)O)C(=O)N[C@@H](CC(=O)O)C(=O)N1CCC[C@H]1C(=O)N[C@@H](CO)C(N)=O` (stereo partly shown) [compound 97] (H-FNK[X1]MR[ξ(4-Aminopyrrolidine-3-CO)]RYWE[Aib]ALDPNLNN[Aib]QKR[Aib]KIR[ξ(4-Aminopyrrolidine-3-CO)]IYDDPS-NH2), the half-life in data set [2] was 4.33 h. The inhibition constant Ki on HER2 [3] was 33 nM.
Usually IC50 stands for the concentration that inhibits the measured activity by half. On to `CC[C@H](C)[C@H](NC(=O)[C@H](CCCNC(=N)N)NC(=O)[C@H](Cc1c[nH]c2ccccc12)NC(=O)CNC(=O)[C@@H](N)CC(C)C)C(=O)NCC(=O)N[C@@H](CCC(=O)O)C(=O)NC(C)(C)C(=O)NCC(=O)N[C@H](C(=O)N[C@@H](CC(=O)O)C(=O)N1CCC[C@H]1C(=O)N[C@@H](CC(N)=O)C(=O)N[C@@H](CC(C)C)C(=O)N[C@@H](CC(N)=O)C(=O)N[C@@H](Cc1c[nH]cn1)C(=O)N[C@@H](CCC(N)=O)C(=O)N[C@@H](CCC(N)=O)C(=O)N[C@@H](Cc1ccccc1)C(=O)N[C@@H](CCCNC(=N)N)C(=O)NC(C)(C)C(=O)N[C@@H](CCCCN)C(=O)N[C@H](C(=O)N[C@@H](CC(C)C)C(=O)N[C@H]1CNC[C@@H]1C(=O)N[C@H](C(=O)N[C@@H](Cc1c[nH]c2ccccc12)C(=O)N[C@H]1CCC[C@@H]1C(N)=O)[C@@H](C)CC)[C@@H](C)CC)[C@@H](C)O` [α/β-TNFα-14, LGWRIGEAGTDPNLNHQQFRAKILZIWX-NH2] (H-LGWRIGE[Aib]GTDPNLNHQQFR[Aib]KIL[X2]IW-{NH(1S,2S-2-CONH2-cPent)}; N-terminus assumed), for which the IC50 in data set [4] turned out to be 1000 nM.
`CC[C@H](C)[C@H](NC(=O)[C@H](CCCNC(=N)N)NC(=O)[C@H](Cc1c[nH]c2ccccc12)NC(=O)CNC(=O)[C@H](CC(C)C)NC(=O)[C@H]1CCC[C@@H]1N)C(=O)NCC(=O)N[C@@H](CCC(=O)O)C(=O)NC(C)(C)C(=O)NCC(=O)N[C@H](C(=O)N[C@@H](CC(=O)O)C(=O)N1CCC[C@H]1C(=O)N[C@@H](CC(N)=O)C(=O)N[C@@H](CC(C)C)C(=O)N[C@@H](CC(N)=O)C(=O)N[C@@H](Cc1c[nH]cn1)C(=O)N[C@@H](CCC(N)=O)C(=O)N[C@@H](CCC(N)=O)C(=O)N[C@@H](Cc1ccccc1)C(=O)N[C@@H](CCCNC(=N)N)C(=O)NC(C)(C)C(=O)N[C@@H](CCCCN)C(=O)N[C@H](C(=O)N[C@@H](CC(C)C)C(=O)N[C@H]1CNC[C@@H]1C(=O)N[C@H](C(=O)N[C@@H](Cc1c[nH]c2ccccc12)C(=O)N[C@H]1CCC[C@@H]1C(N)=O)[C@@H](C)CC)[C@@H](C)CC)[C@@H](C)O` [α/β-TNFα-16, XLGWRIGEAGTDPNLNHQQFRAKILZIWX-NH2] ({ACPC(1S,2S)}-LGWRIGE[Aib]GTDPNLNHQQFR[Aib]KIL[X2]IW-{NH(1S,2S-2-CONH2-cPent)}; N-terminus assumed): in data set [4], the IC50 stood at 510 nM.
For the molecule “KEMHNAYAIEIALLPNLNDQQFHAFIWSLIDDPS-NH2 [Z-VEGF (7-40)]”, the “binding to VEGF (in words)” value on VEGF is on record as “showed no binding”.
As to “VDNKFNKEMHNAYAIEIALLPNLNDQQFHAFIWSLIDD-NH2 [Z-VEGF (1-38)]”, the “binding to VEGF (in words)” value on VEGF was “shows no binding”; on VEGF (listed as Z-VEGF(1-38)), “complete loss of binding”.
Turning to “VDNKFNKEQHNARAIEAALDPNLNDQQFHAKIWSIIDD-NH2 [α-VEGF-1]”, the “solubility in PBS at 75 μM” value in “Aqueous solubility (PBS)” was “fully soluble”. The “inhibition of VEGF-induced HUVEC proliferation (in words)” value in data set [5] was “does not show any inhibition”. Also, on VEGF, the “binding to VEGF (in words)” value is recorded as “does not show binding; also recorded: did not recover binding”.
Turning to “VDNKFNKEXHNZRAIEAALDPNLNDQQFHAKIWZIIXD [α/β-VEGF-1-linear]”, the “binding to VEGF (in words)” value at VEGF is on record as “lack of binding; also recorded: essentially no binding”.

Values taken from patent US9284362B2, “α/β-peptide mimics of Z-domain peptides” (Wisconsin Alumni Research Foundation, priority 2014, dated 2016).
